# Experimental data published in PMC7937321 (Genes and Environment, 2021).
# Key:
# TK6 cells = experiment: Toxicoproteomic analysis of treated TK6 cells (LC-MS/MS, DEPs, enrichment analysis); assay type: cell-based, human; conditions: specific DEPs 24-h 800 μg/mL
# Method: We conducted a proteomic analysis using TK6 cells treated by 4-nitroanthranilic acid that was negative in the short-term treatment and positive in the 24 h treatment. HC Blue No. 2 gave also same test results. […]
# Raw MS data were processed by MaxQuant (version 1.6.3.3) supported by the Andromeda search engine for peak detection and quantification. […]
# All NaN values of log2 LFQ intensities were converted to − 7, which is approximately equivalent to the minimum value of the LFQ intensities observed in the present study. Then, fold change values were calculated by dividing LFQ intensities (antilogarithms of the log2 LFQ intensities) into sample treated groups by intensities in non-treated (control) groups, respectively (4 and 24 h treated groups). Then, log2 fold changes were calculated. […]
# rodent = conditions: rodent; ref [20]-[41], Table 2; cited from earlier work
compound,measurement,setting,value
Nc1cc([N+](=O)[O-])ccc1C(=O)O [4-Nitroanthranilic acid],Count: GO:0005515 ~ protein binding,TK6 cells; Down-regulated,34
same,Count: GO:0005515 ~ protein binding,TK6 cells; Up-regulated,88
same,Carcinogenicity Studies,rodent,Neg
